Laboratory results taken from patent US8278072B1, “Method for synthesis of sialylated products using reversible sialylation” (Health Research, Inc., priority 2007, dated 2012).

How the values were obtained:
Assay type in all cases: biochemical
ST3Gal-II [1] = target: T1, ST3Gal-II (Rattus norvegicus, UniProt Q11205); experiment: Reverse sialylation equilibrium constant (Keq) and 5′-CMP dose dependence; conditions: acceptor 5′-CMP
T1 construct: purchased Calbiochem
T1 sequence (Q11205 1-350): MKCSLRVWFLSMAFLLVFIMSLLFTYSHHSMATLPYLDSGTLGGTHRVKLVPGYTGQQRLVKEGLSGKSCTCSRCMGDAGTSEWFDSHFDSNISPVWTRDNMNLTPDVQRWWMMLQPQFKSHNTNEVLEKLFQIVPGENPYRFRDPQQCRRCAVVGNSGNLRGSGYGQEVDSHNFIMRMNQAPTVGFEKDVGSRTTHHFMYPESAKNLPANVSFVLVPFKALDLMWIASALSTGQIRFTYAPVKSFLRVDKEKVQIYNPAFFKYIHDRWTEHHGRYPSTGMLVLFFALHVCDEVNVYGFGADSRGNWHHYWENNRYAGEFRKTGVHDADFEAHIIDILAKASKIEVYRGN
Description: FIG. 2. Equilibrium constant. a. Reversible sialyltransferase activity at increasing concentration of 5′-CMP. 0.15 mM of donor [9-^3H]NeuAcα2,3Galβ1,3(4-FGlcNAcβ1,6)GalNAcα-O-Bn [9-^3H[2]] was incubated with varying concentrations of 5′-CMP and 0.15 mU ST3Gal-II under conditions described in FIG. 1 for 2 hours. The consumption of the [9-^3H]NeuAc benzyl glycoside donor was measured by subjecting the incubation mixture to Sep-Pak C18 fractionation, which binds the donor and not CMP-[9-^3H]NeuAc. The reaction proceeded to ½ the maximum extent at 80 μM 5′-CMP. b. Equilibrium constant Keq (=0.35) calculated for data in panel a. c. Varying concentrations of 5′-CMP was sialylated with ST3Gal-II (2.0 mU) using either 0.15 mM (panel c) or 1.5 mM (not shown) sialyl donor [9-^3H]NeuAcα2,3Galβ1,3GalNAcβ1,3Galα-O-Me [9-^3H[3]] for 4 hours. The product CMP-[9-^3H]NeuAc and the unused [9-^3H[3]] were separated and quantitated by Dowex-1-Formate method. d. Equilibrium constant, Keq=98.9. Diamonds denote data from 1.5 mM runs while data from 0.15 mM runs are depicted by squares.
(§1) a) Biogel P2 chromatography: A Biogel P2 column (Fine Mesh; 1.0×116.0 cm) was used with 0.1 M pyridine acetate (pH5.4) as the eluent at room temperature. […] Fractions of 1.0 ml were collected. The bound material was then eluted with 0.5M GlcNAc or 0.2M Gal in the same buffer. […] Calculation of equilibrium constant, Keq: Equilibrium constant was calculated for selected reversible bimolecular reactions that are denoted by:
[formula] Here, [9-^3H]D* denotes the radiolabeled donor and D′ is the donor after removal of sialic acid. Similarly, A and [9-^3H]A* denote the acceptor before and after incorporation of NeuAc. In each run, unreacted [9-^3H]D* and product [9-^3H] A* are measured using radioactivity measurements. The equilibrium constant (Keq=kreverse/kforward, dimensionless units) are then determined using the following equation, where terms in square brackets denote concentrations:
[formula] [D0] and [A0] are initial donor and acceptor concentrations. A plot of [D*]/([D0]−[D*]) versus [A*]/([A0]−[A*]) yields Keq from slope data. Keq<1 implies that the forward reaction is favored and the reaction proceeds to the right side to form [9-^3H]A* efficiently. Liquid Chromatography Coupled with Tandem Mass Spectrometry (LC/MS/MS)
Similar results were observed upon increasing concentrations of 5′-CMP when [9-^3H]NeuAcα2,3Galβ1,3(4-FGlcNAcβ1,6) GalNAcα-O-Bn [9-^3H[2]] was donor (FIG. 2a, b). The concentration of 5′-CMP that mediated half-maximal transfer of [9-^3H]NeuAc was 80 μM. The bimolecular equilibrium constant (Keq) for this reaction was 0.35 (dimensionless units, Table I). Indeed, the Keq varied depending on the donor and it was 98.9 when the donor was based on the globo glycolipid, [9-^3H]NeuAcα2,3Galβ1,3GalNAcβ1,3 Gala-O-Me [[9-^3H] [3]] (FIG. 2c, d). Upon comparing and [3], it is apparent that reverse sialylation proceeds more effectively in the case of [2]. To further confirm the above estimates of Keq for core-2 based structures, we also calculated this parameter for our previously published data where [9-^3H]CMP-NeuAc was donor and mucin core-2 tetrasaccharide Galβ1,4GlcNAcβ1,6(Galβ1,3)GalNAcα-O-Bn was acceptor. In this case, Keq measured with respect to the rate of mucin core-2 sialylation was 5.55 (data not shown), which translates to a reverse sialylation Keq of 0.18.

ST3Gal-II [2] = target: T1, ST3Gal-II; experiment: Reverse sialylation: transfer of [9-3H]NeuAc from sialylated donor to nucleotide phosphates (WGA-agarose); conditions: nucleotide phosphate 1 mM as acceptor, donor [1]
Description: FIG. 1. Nucleotide phosphates as acceptors of radioactivity from [9-^3H]NeuAcα2,3Galβ,13 (GlcNAcβ1,6)GalNAcα-O—Al (Al=Allyl) [[9-^3H] [1]] in the presence of ST3Gal-II (scheme-I). Reaction mixtures (RM) with the following composition were incubated at 37° C. for 21 hours in 100 mM NaCa Codylate buffer, pH6.0: i) RM containing 150 μM (0.4 μCi) [[9-^3H] [1]] (donor) along with 0.8 mU ST3Gal-II but no 5″-CMP; and, ii) RM containing [[9-^3H] [1]] and 1.0 mM 5′-CMP, along with ST3Gal-II. Products formed were fractionated on a WGA-agarose column. […] The feasibility of the reverse reaction is well established in literature. Schematic symbols: ♦:sialic acid, ●:Gal, □:GalNAc, ▪:GlcNAc.
All enzymatic sialylation reactions were typically carried out in 100 mM NaCa Codylate buffer pH6.0 in the presence of enzyme, synthetic acceptor (at 7.5 mM or as indicated in each experiment) and 0.2 μCi CMP-[9-^3H]NeuAc (NEN-Dupont, 29 mCi/μmol). The concentration of total CMP-NeuAc was adjusted in individual reactions by supplementing with additional cold CMP-NeuAc. Reaction volume was 20 μl. Products formed were separated using four different chromatography procedures (below). In all cases, the radioactive content of isolated products was determined by using 3a70 scintillation cocktail (Research Products International, Mount Prospect, Ill.), and a Beckman LS6500 scintillation counter.
as §1
Cloned and purified rat sialyltransferase α2,3(O)ST (ST3Gal-II) is used in many experiments presented in this manuscript. […] In order to determine if the sialylation reaction is reversible (FIG. 1), [9-^3H]NeuAcα2,3Galβ,13(GlcNAcβ1,6)GalNAcα-O—Al (Al=Allyl) [9-^3H[1]] was prepared using ST3Gal-II in the presence of CMP-[9-^3H]NeuAc and the trisaccharide acceptor Galβ1,3(GlcNAcβ1,6)GalNAcα-O—Al, and the radiolabeled product was isolated using Biogel P2 chromatography. […] Two different reaction mixtures were then prepared with: i) [9-^3H[1]] and ST3Gal-II but without 5″-CMP; and ii) [9-^3H[1]] and 5″-CMP along with ST3Gal-II.

ST3Gal-II [3] = target: T1, ST3Gal-II; experiment: Reverse sialylation by ST3Gal-II in presence of citrate or 5′-nucleotides; conditions: 0.2 mM [3], 7 mM 5′-CMP, 3.0 mM [5], 4 hours
Description: FIG. 5. Effect of 5′-nucleotides on direct sialyltransferase activity (panel a) and reverse sialylation (panel b). a. Varying concentrations of 5′-CDP or 5′-CMP were added to 100 mM acceptor (specified below), 0.15 mM CMP-[9-^3H]NeuAc and either ST3Gal-II (0.2 mU), ST3Gal-III (0.5 mU) or ST6Gal-I (0.2 mU) for 4 h at 37° C. Products were separated using Sep-Pak C18 method. ST3Gal-III activity was measured using acceptor 4-O-MeGalβ1,4GlcNAcβ-O-Bn in the presence of 5′-CDP (●) and 5′-CMP (◯). ST6Gal-I activity was measured using Gal β1,4GlcNAcβ-O-Bn in the presence of 5′-CDP (▴) and 5′-CMP (Δ). ST3Gal-II using D-Fucβ1,3GalNAcα-O-Bn in the presence of 5′-CDP (▪) and 5′-CMP (□). b) Reverse sialylation by ST3Gal-II was measured in reaction mixtures containing 0.2 mM [9-^3H] [3], 7 mM 5′-CMP, ST3Gal-II (2 mU), D-Fucβ1,3GalNAcα-OBn (3.0 mM) and varying doses of either 5′-CDP (▴), 5′-UMP (◯) or 2-deoxy 5′-CMP (●) for 4 hours at 37° C. Reaction product ([9-^3H]NeuAcα2,3DFucβ1,3 GalNAcα-O-Bn) was isolated using Sep-Pak C18 method. In some runs, where was absent, the amount of CMP-NeuAc produced was quantified using the Dowex-1 Formate method in the presence of varying doses of 5′-CDP (▪).
Besides pH other distinctions were also observed between forward and reverse sialylation. In this regard, citrate ions tended to inhibit forward sialylation but not reverse sialylation activity (Table V). For these studies, the effect of citrate on the forward sialylation activity of ST3Gal-I, ST3Gal-II, ST3Gal-III and ST6Gal-I was examined. Reverse sialylation activity of ST3Gal-II was also measured in terms of: i) the formation of CMP-NeuAc from 5′-CMP; and ii) the transfer of NeuAc from this newly synthesized CMP-NeuAc to another O-glycan. From the data (Table V), it is evident that citrate inhibits the direct sialylation activity of all the enzymes mentioned above. However, both the synthesis of CMP-[9-^3H]NeuAc from 5′-CMP as well as the synthesis of [9-^3H]NeuAcα2,3D-Fucβ1,3 GalNAcα-O-Bn using the newly formed CMP-[9-^3H]NeuAc through reverse sialylation of ST3Gal-II was not inhibited by citrate.
The effect of 5′-nucleotides on forward sialylation (FIG. 5a) and reverse sialylation (FIG. 5b) were examined. […] The overall formation of [9-^3H]NeuAcα2,3D-Fucβ1,3 GalNAcα-O-Bn by the two-step reverse sialylation process, however, was inhibited by 5′-CDP and this is consistent with the finding that 5′-CDP inhibits forward sialylation in the second step.

Compound | Keq (dimensionless units), reverse sialylation equilibrium constant (ST3Gal-II [1]; translated from Keq 5.55 of mucin core-2 sialylation, previously published data) | Keq (dimensionless units), reverse sialylation equilibrium constant (ST3Gal-II [1]; sialylated donor) | Incorporation of [9-3H]NeuAc expressed as percent of the CPM incorporated into 5′-CMP (ST3Gal-II [2]) | Effect on overall formation of [9-3H]NeuAcα2,3D-Fucβ1,3GalNAcα-O-Bn by two-step reverse sialylation (ST3Gal-II [3])
[9-^3H]NeuAcα2,3Gal(1,3(Gal(1,4GlcNAc(1,6)GalNAc(-O-Bn | 0.18 |  |  | 
[9-^3H]NeuAcα2,3Galβ1,3GalNAcβ1,3Galα-O-Me [[3]] |  | 98.9 |  | 
O=c1ccn([C@@H]2O[C@H](COP(=O)(O)O)[C@@H](O)[C@H]2O)c(=O)[nH]1 [5′-UMP] |  |  | 55.9% | did not alter the extent of product formation
Nc1ccn([C@H]2C[C@H](O)[C@@H](COP(=O)(O)O)O2)c(=O)n1 [2′ deoxy 5′-CMP] |  |  | 26.3% | did not alter the extent of product formation
